The values that follow come from article PMC6723352, “Exploring Structure-Activity Relationship in Tacrine-Squaramide Derivatives as Potent Cholinesterase Inhibitors” (Biomolecules, 2019).

Usually IC50 stands for the concentration that gives 50% inhibition. In general, Ki refers to a dissociation constant, usually derived from enzyme kinetics or from competition with a known ligand. Low readings indicate tighter binding, high ones weaker binding.

The target in series [1] is T1, human AChE (hAChE), recombinant acetylcholinesterase (Homo sapiens, UniProt P22303).
T1 construct: made in house
Kind of series: hAChE inhibition, modified Ellman's method. Type of series: biochemical. The protocol:
Three series of tacrine-squaramide homodimers were tested for their inhibitory potential against human AChE (hAChE) and human BChE (hBChE) enzymes using modified spectrophotometric method of Ellman et al.. THA, 6-Cl-THA and 7-MEOTA were used as reference compounds. […].
(§1) Human plasmatic butyrylcholinesterase (BChE; EC 3.1.1.8) and recombinant acetylcholinesterase (AChE; 3.1.1.7) were prepared at the Department of Toxicology and Military Pharmacy. 5,5′-dithiobis(2-nitrobenzoic acid) (Ellman’s reagent, DTNB), phosphate buffer (PB, pH 7.4), acetylthiocholine (ATC) and butyrylthiocholine (BTC), were purchased from Sigma-Aldrich, Prague, Czech Republic. For measuring purposes – polystyrene Nunc 96-well microplates with flat bottom shape (ThermoFisher Scientific, USA) were utilized.
(§2) All the assays were carried out in 0.1 M KH2PO4/K2HPO4 buffer, pH 7.4. Enzyme solutions were prepared at 2.0 units/mL in 2 mL aliquots. The assay medium (100 µL) consisted of 40 µL of 0.1 M phosphate buffer (pH 7.4), 20 µL of 0.01 M DTNB, 10 µL of the enzyme, and 20 µL of 0.01 M substrate (ATC/BTC iodide solution).
(§3) Tested compounds were preincubated for 5 min. The reaction was started by immediate addition of 20 µL of the substrate. The activity was determined by measuring the increase in absorbance at 412 for AChE/BChE at 37 °C at 2 min intervals - using a Multi-mode microplate reader Synergy 2 (Winooski, VT, USA). Each concentration was assayed in triplicate. Software GraphPad Prizm 5 (San Diego, CA, USA) was used for the statistical data evaluation.
In general terms: Ellman's reagent forms a yellow product with free thiols.

Series [2] is described as follows: in vitro. As to conditions: human. How it is done:
The human origin cell line HepG2 (ATCC, Mannassas, VA, USA) isolated from liver hepatocellular carcinoma was used to evaluate cytotoxicity of tested compounds. The cells were cultivated in Dublecco’s modified Eagle’s medium (DMEM; Biosera, Nuaille, France) supplemented with 10% fetal bovine serum (Biosera) and 1% penicillin-streptomycin antibiotic solution (Sigma-Aldrich, St. Louis, MO, USA), incubated at 37 °C in a CO2 incubator (Binder CO2 incubator BC 160, Tuttlingen, Germany) and routinely passaged by trypsinization at 75–85% confluence.
The final concentration of DMSO was less than 0.25% per well.
After 24-h incubation, the medium containing serially diluted substances was aspirated from each well and replaced by 100 µL of fresh medium containing MTT (0.5 mg/mL). Plates were subsequently incubated at 37 °C in CO2 incubator for 45 min. The medium containing MTT was then aspirated and formazan dissolved in 100 μL of DMSO. The optical density of each well was measured using Synergy 2 Multi-Mode Microplate Reader (BioTek Instruments, Inc., Winooski, VT, USA) at 570 nm. The cell viability was expressed as the percentage of untreated control. Each experiment was performed in triplicate and repeated three independent times.
The IC50 values were expressed as a mean ± standard error of the mean (SEM).

On series [3], the source says:
An important feature for drugs targeting the brain is their ability to cross the BBB. The parallel artificial membrane permeability assay (PAMPA) is a high-throughput screening tool applicable for prediction of passive transport across BBB [57]. […] These include mainly (i) the different composition of the human phospholipid bilayer may cause deviation in predicted permeability, (ii) omitting the absorption of compounds that are actively transported by influx transporters and pumped-out by various efflux mechanisms with the glycoprotein P at the forefront or (iii) transport through the paracellular route which is mostly exploited by small […] molecules. Even considering these drawbacks, PAMPA-BBB is conceived as very simple but powerful tool for BBB prediction.
PAMPA (the parallel artificial membrane permeability assay) is a high-throughput screening tool applicable for prediction of the passive transport of potential drugs across the blood-brain barrier (BBB). In this study, it has been used as a non-cell-based in vitro assay carried out in a coated 96-well membrane filter. The filter membrane of the donor plate was coated with PBL (Polar Brain Lipid, Avanti, USA) in dodecane (4 µl of 20 mg/mL PBL in dodecane) and the acceptor well was filled with 300 µl of phosphate buffer saline, (PBS pH 7.4; VA). The tested compounds were dissolved first in DMSO and then diluted with PBS pH 7.4 to reach the final concentrations 50–500 µM in the donor well. […] In principle, test compound diffuse from the donor well through the polar brain lipid membrane (area = 0.28 cm^2) to the acceptor well. The concentration of the tested compound in both donor and the acceptor wells were assessed after 3, 4, 5 and 6 h of incubation in quadruplicate using the UV plate reader Synergy HT (Biotek, USA) at the maximum absorption wavelength of each compound (n = 3). Besides that, the solution of theoretical compound concentration, simulating the equilibrium state, established if the membrane was ideally permeable was prepared and assessed as well.

In series [4] the target is human BChE (hBChE), human plasmatic butyrylcholinesterase (Homo sapiens, UniProt P06276). Description: hBChE inhibition, modified Ellman's method. The series is classed as biochemical. The protocol: Three series of tacrine-squaramide homodimers were tested for their inhibitory potential against human AChE (hAChE) and human BChE (hBChE) enzymes using modified spectrophotometric method of Ellman et al.. THA, 6-Cl-THA and 7-MEOTA were used as reference compounds.
as §1, §2, §3

Series [5] deals with hBChE (Homo sapiens, UniProt P06276). Kind of series: Kinetic study of BChE inhibition. Type of series: biochemical. The protocol: Kinetic study was performed in order to describe the interactions of the compounds 4b and 3e with hAChE and hBChE, respectively. Inhibition kinetics were elucidated from velocity curves that were measured at several concentrations of the corresponding substrate (AChE—acetylthiocholine, BChE—butyrylthiocholine) and tested compounds. The type of enzyme inhibition and corresponding kinetic parameters (Ki and Ki’) were determined by nonlinear regression analysis. Results for each type model of inhibition (competitive, non-competitive, uncompetitive and mixed) were compared by sum-of-squares F-test. […].
The kinetic study of AChE and BChE was performed by using the above-mentioned modified Ellman’s method. The values of Vmax and Km of the Michaelis-Menten kinetics as well as the values of Ki and Ki’ were calculated by nonlinear regression from the substrate velocity curves. Linear regression was used for calculation of Lineweaver-Burk plots. All calculations were performed using GraphPad Prism software version 6.07 for Windows (San Diego, CA, USA).

Chain of hBChE (P06276 29-602): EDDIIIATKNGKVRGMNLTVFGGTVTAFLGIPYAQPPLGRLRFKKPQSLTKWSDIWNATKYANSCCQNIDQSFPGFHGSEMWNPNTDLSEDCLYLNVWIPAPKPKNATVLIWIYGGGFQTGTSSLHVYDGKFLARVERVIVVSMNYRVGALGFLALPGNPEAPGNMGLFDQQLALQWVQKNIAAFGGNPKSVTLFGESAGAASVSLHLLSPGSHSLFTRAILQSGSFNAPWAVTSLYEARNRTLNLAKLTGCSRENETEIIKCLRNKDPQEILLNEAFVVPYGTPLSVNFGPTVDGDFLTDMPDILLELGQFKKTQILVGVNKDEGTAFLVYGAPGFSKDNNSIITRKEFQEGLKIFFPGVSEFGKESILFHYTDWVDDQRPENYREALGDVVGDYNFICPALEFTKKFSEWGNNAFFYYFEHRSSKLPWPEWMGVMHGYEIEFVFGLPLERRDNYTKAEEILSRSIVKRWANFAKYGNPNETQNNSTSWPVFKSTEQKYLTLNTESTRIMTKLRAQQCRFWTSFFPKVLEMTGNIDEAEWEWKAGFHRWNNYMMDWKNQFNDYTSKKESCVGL
T1 sequence (P22303 32-614): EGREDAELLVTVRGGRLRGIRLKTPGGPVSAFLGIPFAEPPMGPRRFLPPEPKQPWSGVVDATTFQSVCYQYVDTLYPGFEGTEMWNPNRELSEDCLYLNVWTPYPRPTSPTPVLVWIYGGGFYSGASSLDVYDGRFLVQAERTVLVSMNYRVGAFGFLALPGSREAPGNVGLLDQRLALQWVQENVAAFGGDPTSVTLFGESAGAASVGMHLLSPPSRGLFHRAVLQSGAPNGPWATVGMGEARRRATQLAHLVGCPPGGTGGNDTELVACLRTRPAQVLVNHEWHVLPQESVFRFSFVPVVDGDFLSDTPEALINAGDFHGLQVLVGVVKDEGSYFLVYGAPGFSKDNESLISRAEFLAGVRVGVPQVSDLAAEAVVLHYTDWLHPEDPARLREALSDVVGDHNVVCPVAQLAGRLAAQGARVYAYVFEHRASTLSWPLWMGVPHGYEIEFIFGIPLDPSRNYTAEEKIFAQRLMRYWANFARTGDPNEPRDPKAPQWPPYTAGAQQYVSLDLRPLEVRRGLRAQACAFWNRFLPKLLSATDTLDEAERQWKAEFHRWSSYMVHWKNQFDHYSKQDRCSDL
Chain of human BChE (hBChE), human plasmatic butyrylcholinesterase (P06276 29-602): as the sequence (P06276 29-602) above

Turning to `O=c1c(NCCCCCCNc2c3c(nc4ccccc24)CCCC3)c(NCCCCCCNc2c3c(nc4ccccc24)CCCC3)c1=O` [Compound 3e, Bis({6-[(1,2,3,4-tetrahydroacridin-9-yl)amino]hexyl}amino)cyclobut-3-ene-1,2-dione], the results for the IC50 in series [1] and in series [4] were 13 nM and 21 nM, respectively. In series [1] (ratio IC50(hBChE)/IC50(hAChE)), the “SI (selectivity index for hAChE)” value was found to be 1.6. Further, in series [2], the IC50 at 24 h worked out at 76000 nM. The Pe in series [3] (PAMPA, PBS pH 7.4) was determined as 2.6 ×10⁻⁶ cm/s. In addition, the “BBB permeation prediction in words” value in series [3] (PAMPA-BBB) is recorded as “uncertain BBB permeation”. For the same compound, the “CNS (+/−) predicted BBB permeation” value in series [3] (class from Pe) is on record as “CNS +/− (CNS +/−: BBB permeation uncertain with Pe (10^−6 cm·s^−1) from 4.0 to 2.0)”. Moreover, in series [5] (binding to enzyme-substrate complex, substrate butyrylthiocholine), the “Ki'” value came out at 100 ± 28 nM. The inhibition constant (Ki) in series [5] (binding to free enzyme, substrate butyrylthiocholine) came out at 8.1 ± 1.9 nM. The type of inhibition result in series [5] (nonlinear regression, sum-of-squares F-test, p < 0.05) is “mixed type of inhibition”.
